# Literature values in patent publication US20240158750A1, “STROMA-FREE NK CELL DIFFERENTIATION FROM HUMAN PLURIPOTENT STEM CELLS” (The Children's Medical Center Corporation, priority 2021, published 2024).
# What was measured:
# SET7/9 = molecular target: T1, SET7/9 (Homo sapiens, UniProt Q8WTS6); conditions: SET7/9, inactive, ECSD enzymatic assay; cited from earlier work
# T1 sequence (Q8WTS6 1-366): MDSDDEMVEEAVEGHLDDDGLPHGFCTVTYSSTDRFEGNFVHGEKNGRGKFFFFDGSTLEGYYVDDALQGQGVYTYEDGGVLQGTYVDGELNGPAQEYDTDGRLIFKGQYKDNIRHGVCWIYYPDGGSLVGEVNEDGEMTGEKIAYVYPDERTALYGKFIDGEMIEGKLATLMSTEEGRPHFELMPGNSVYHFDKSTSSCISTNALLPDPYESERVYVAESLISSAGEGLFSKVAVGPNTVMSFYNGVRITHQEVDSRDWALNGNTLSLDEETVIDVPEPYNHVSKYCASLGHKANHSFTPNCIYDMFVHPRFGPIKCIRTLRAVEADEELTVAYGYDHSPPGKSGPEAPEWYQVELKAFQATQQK
# SET8/PreSET7 = SET8/PreSET7 (Homo sapiens, UniProt Q9NQR1); conditions: SET8/PreSET7, inactive, ECSD enzymatic assay; cited from earlier work
# PRMT3 = PRMT3 (Homo sapiens, UniProt O60678); conditions: PRMT3, inactive, ECSD enzymatic assay; cited from earlier work
# JMJD2E = molecular target: T2, JMJD2E (Homo sapiens, UniProt B2RXH2); conditions: ECSD enzymatic assay, cited from earlier work
# T2 sequence (B2RXH2 1-506): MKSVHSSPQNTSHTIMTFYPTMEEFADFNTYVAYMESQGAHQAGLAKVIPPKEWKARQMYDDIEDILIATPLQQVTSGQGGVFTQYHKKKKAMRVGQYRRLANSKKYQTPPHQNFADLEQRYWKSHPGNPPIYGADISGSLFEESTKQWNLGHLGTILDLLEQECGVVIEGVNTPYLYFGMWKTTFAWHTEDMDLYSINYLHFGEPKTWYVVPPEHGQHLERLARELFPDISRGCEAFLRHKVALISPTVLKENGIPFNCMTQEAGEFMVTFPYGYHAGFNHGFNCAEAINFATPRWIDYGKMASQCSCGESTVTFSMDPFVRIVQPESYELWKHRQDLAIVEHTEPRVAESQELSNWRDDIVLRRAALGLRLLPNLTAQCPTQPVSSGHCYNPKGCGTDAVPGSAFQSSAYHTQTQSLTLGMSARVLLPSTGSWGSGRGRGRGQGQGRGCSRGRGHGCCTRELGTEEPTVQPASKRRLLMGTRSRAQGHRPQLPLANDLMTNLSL
# PKMT G9a = molecular target: T3, PKMT G9a (Homo sapiens, UniProt Q96KQ7); conditions: based on Morrison Ki; cited from earlier work
# T3 sequence (Q96KQ7 1-1210): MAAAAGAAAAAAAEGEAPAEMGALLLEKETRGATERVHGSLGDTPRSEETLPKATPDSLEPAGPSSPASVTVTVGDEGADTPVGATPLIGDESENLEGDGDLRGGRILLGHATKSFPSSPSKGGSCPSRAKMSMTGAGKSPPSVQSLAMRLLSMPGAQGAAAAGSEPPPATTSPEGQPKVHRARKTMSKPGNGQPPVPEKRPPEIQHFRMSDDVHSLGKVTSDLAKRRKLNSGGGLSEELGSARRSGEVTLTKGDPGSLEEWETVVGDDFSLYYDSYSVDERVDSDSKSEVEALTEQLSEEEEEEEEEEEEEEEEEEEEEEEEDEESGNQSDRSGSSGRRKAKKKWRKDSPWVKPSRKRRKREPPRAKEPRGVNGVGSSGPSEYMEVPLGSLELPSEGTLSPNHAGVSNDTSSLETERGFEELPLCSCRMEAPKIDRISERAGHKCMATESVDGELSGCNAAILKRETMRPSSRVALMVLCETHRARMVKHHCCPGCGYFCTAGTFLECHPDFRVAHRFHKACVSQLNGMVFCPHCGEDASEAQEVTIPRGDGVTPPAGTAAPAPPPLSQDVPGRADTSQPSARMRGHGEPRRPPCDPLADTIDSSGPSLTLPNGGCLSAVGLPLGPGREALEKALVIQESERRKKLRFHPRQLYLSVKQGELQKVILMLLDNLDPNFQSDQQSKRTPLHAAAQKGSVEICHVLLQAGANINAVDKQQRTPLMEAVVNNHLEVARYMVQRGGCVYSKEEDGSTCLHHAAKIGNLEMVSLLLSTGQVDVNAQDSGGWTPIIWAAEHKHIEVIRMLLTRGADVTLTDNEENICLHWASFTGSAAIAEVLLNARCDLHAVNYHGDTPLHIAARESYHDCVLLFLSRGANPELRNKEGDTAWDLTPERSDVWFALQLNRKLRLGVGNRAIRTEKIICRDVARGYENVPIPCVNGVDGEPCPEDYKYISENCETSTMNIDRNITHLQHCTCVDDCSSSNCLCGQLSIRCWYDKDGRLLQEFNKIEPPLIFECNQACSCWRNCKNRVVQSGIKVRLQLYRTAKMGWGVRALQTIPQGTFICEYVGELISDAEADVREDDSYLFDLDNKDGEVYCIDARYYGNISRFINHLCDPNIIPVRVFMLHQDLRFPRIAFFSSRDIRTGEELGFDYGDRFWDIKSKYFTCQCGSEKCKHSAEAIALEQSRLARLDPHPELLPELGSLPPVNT
# G9a/GLP = molecular target: T4, G9a/GLP (Homo sapiens, UniProt Q96KQ7); conditions: SAM-competitive; cited from earlier work
# T4 sequence (Q96KQ7 1-1210): T3 sequence (Q96KQ7 1-1210)
# [1] = molecular target: T5, class III isoenzyme SIRT1 (Homo sapiens, UniProt Q96EB6); conditions: cited from earlier work
# T5 sequence (Q96EB6 1-747): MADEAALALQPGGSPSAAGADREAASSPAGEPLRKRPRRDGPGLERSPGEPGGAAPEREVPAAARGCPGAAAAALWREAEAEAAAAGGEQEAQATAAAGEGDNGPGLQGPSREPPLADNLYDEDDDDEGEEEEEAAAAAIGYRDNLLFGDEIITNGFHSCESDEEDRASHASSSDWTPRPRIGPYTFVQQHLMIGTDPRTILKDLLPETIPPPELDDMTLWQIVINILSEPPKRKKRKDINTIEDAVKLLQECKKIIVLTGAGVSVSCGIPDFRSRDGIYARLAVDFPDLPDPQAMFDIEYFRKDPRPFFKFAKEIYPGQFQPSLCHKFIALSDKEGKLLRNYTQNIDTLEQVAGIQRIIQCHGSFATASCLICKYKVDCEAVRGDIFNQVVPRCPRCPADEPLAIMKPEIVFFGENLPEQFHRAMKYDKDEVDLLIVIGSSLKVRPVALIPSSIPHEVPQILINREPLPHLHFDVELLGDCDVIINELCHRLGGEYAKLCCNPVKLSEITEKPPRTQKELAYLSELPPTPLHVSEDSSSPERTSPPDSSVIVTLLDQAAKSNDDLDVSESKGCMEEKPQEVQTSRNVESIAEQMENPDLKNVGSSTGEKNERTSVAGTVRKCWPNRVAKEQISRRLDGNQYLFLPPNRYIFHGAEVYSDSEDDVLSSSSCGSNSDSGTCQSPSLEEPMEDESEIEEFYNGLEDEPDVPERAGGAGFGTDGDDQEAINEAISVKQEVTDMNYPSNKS
# G9a = conditions: cited from earlier work
# DIM5 = molecular target: T6, DIM5 (Neurospora crassa, UniProt Q8X225); conditions: cited from earlier work
# T6 sequence (Q8X225 1-331): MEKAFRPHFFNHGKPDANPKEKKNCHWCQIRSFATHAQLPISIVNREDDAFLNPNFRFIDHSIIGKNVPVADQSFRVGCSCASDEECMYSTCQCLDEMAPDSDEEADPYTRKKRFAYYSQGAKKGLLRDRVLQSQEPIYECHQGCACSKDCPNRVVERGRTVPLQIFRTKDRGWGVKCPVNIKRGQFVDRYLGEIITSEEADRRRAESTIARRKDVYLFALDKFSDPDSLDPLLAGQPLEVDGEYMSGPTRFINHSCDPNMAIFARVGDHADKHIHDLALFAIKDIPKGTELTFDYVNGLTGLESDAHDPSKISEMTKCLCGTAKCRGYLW
# Lys27-specific EZH2 = conditions: cited from earlier work
# Lys20-specific PRSET7 = molecular target: T7, Lys20-specific PRSET7 (Homo sapiens, UniProt Q9NQR1); conditions: cited from earlier work
# T7 sequence (Q9NQR1 1-393): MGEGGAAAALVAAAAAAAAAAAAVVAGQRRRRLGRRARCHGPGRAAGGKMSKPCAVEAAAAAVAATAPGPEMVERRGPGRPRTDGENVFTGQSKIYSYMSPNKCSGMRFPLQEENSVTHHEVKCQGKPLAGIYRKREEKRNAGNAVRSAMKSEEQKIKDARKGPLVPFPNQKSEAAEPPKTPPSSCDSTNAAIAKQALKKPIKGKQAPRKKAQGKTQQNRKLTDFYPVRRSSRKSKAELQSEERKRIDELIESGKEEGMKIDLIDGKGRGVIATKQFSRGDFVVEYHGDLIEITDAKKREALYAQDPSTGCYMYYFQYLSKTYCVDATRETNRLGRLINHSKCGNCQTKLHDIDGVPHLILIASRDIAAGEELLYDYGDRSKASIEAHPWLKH
# Lys4-specific SET7/9 = molecular target: T8, Lys4-specific SET7/9 (Homo sapiens, UniProt Q8WTS6); conditions: cited from earlier work
# T8 sequence (Q8WTS6 1-366): T1 sequence (Q8WTS6 1-366)
# Chain of PRMT3 (O60678 whole entry, species assumed): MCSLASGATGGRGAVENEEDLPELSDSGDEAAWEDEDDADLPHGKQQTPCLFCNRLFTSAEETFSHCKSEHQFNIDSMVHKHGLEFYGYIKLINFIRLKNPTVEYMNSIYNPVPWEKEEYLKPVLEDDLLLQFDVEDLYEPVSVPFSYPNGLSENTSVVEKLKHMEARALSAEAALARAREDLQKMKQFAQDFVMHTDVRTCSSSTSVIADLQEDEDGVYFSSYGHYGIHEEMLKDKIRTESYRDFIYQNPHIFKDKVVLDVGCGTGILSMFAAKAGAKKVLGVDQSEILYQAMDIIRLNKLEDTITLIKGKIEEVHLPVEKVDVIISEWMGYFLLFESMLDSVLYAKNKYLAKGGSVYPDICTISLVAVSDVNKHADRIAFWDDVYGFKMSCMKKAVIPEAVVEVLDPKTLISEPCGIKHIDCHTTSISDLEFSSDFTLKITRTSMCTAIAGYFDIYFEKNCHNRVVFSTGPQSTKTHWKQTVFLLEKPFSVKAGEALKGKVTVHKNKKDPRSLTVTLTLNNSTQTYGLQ
compound,measurement,setting,value
COc1cc2c(NC3CCN(C)CC3)nc(N3CCCN(C)CC3)nc2cc1OCCOCCN(C)C [UNC0321],IC50,SET7/9,> 40 µM
same,IC50,SET8/PreSET7,> 40 µM
same,IC50,PRMT3,> 40 µM
same,selectivity,JMJD2E; G9a over JMJD2E,well as JMJD2E (>1000-fold
same,IC50,"JMJD2E; JMJD2E, inactive",> 40 µM
same,fold more potent than BIX01294,PKMT G9a,~250 fold
COc1ccc(C(=O)Oc2ccc(CCn3c(NC(=O)c4ccc(C(F)(F)F)cc4)nc4cc(C(=O)O)ccc43)cc2)cc1 [BIX-01338],effective conc.,G9a/GLP,G9a/GLP effective conc. = 15 μM
CCCCc1nc2cc(/C=C/C(=O)NO)ccc2n1CCN(CC)CC [SB939 (Pracinostat)],activity against the class III isoenzyme SIRT1,[1],no activity
Chaetocin,IC50,G9a,2.5 µM
same,IC50,DIM5,3 µM
same,IC50,Lys27-specific EZH2,> 90 µM
same,IC50,Lys20-specific PRSET7,> 90 µM
same,IC50,Lys4-specific SET7/9,> 90 µM
